The source made the active and inactive calls.
Legend:
[1] = biological target: Glyceraldehyde-3-phosphate dehydrogenase (Homo sapiens, UniProt P04406)
[2] = inhibitors of firefly luciferase expression or activity, dose response, H4 neuroglioma cells, luminescence (AID 1990); assay type: functional, cell-based
[3] = biological target: T1, RNA-binding protein pos-1 (Caenorhabditis elegans, UniProt G5EF15); experiment: inhibitors of POS-1/mex-3 RNA binding, dose response, biochemical, fluorescence polarization (AID 1964);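 note: purified POS-1 fused to maltose binding protein made in E. coli; potency of compounds blocking POS-1 binding to fluorescent RNA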
T1 sequence (G5EF15 whole entry): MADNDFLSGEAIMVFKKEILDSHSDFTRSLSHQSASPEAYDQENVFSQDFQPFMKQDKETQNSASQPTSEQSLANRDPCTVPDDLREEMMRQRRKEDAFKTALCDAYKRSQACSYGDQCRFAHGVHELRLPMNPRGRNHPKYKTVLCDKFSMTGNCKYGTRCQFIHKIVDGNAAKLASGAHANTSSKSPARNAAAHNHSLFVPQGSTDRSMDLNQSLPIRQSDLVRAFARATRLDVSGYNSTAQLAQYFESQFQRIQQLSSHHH

[4] = Luminescence Cell-Based Dose Response HTS to Identify Inhibitors of 5'UTR Stem-Loop Driven Prion Protein mRNA Translation in H4 Neuroglioblastoma Cells. [Related pubchem assays: 1827 (Project Summary), 1813 (Primary HTS)]; assay type: functional
[5] = biological target: T2, Zinc finger protein mex-5 (Caenorhabditis elegans, UniProt Q9XUB2); experiment: MEX-5/TCR-2 RNA interaction inhibitors, dose response, biochemical, C. elegans, fluorescence polarization (AID 1960)
T2 sequence (Q9XUB2 whole entry): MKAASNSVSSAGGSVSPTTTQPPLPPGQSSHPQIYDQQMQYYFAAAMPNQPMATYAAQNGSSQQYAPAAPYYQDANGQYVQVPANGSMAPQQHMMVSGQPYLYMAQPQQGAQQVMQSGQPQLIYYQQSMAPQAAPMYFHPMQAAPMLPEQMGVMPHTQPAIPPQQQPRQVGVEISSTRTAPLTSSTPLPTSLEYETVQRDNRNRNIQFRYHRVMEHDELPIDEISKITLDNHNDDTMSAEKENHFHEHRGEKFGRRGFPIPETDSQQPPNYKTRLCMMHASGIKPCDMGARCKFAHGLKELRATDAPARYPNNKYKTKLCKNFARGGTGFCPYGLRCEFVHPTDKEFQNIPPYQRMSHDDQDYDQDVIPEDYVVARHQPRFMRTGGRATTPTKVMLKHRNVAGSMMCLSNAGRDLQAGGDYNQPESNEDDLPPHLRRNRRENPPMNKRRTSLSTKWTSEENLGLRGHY

[6] = inhibitors of SNCA 5'UTR-driven reporter translation, confirmation, H4 neuroglioma cells, luminescence (AID 1988); assay type: functional, cell-based
[7] = biological target: Luciferin 4-monooxygenase (Photinus pyralis, UniProt P08659); experiment: firefly luciferase enzyme inhibitors, dose response, biochemical, luminescence (AID 1891)
Chain of Luciferin 4-monooxygenase (P08659 whole entry): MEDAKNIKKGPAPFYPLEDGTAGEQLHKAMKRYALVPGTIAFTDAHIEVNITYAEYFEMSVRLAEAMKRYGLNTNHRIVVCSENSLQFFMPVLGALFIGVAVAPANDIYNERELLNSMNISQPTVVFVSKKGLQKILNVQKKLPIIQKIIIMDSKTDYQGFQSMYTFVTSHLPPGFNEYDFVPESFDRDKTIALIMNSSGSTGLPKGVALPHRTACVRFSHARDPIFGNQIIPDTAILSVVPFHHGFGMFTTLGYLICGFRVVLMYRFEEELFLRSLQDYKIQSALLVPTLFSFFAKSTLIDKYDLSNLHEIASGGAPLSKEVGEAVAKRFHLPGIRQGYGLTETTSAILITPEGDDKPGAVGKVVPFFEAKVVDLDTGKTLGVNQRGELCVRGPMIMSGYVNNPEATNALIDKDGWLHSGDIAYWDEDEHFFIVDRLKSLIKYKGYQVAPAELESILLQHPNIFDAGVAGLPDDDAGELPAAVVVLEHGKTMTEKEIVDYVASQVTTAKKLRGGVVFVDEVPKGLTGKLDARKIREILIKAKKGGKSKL

[8] = Luminescence Cell-Based Dose Confirmation HTS to Identify Inhibitors of Platelet Dense Granule Release. [Related pubchem assays: 1663 (Primary HTS), 1678 (Summary of Project)]; assay type: functional
HEK293 = experiment: inhibitors of LMP1-driven NF-kB reporter, dose response, cell-based, HEK293, luciferase, cherry-pick (AID 588343); assay type: functional; conditions: Homo sapiens
cells = assay type: functional, cell-based
[9] = biological target: T3, Nuclear receptor subfamily 0 group B member 1 (Homo sapiens, UniProt P51843); assay type: functional, cell-based;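 note: HEK293T cells transfected with SF-1 and DAX-1 plus StAR promoter luciferase reporter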
T3 sequence (P51843 whole entry): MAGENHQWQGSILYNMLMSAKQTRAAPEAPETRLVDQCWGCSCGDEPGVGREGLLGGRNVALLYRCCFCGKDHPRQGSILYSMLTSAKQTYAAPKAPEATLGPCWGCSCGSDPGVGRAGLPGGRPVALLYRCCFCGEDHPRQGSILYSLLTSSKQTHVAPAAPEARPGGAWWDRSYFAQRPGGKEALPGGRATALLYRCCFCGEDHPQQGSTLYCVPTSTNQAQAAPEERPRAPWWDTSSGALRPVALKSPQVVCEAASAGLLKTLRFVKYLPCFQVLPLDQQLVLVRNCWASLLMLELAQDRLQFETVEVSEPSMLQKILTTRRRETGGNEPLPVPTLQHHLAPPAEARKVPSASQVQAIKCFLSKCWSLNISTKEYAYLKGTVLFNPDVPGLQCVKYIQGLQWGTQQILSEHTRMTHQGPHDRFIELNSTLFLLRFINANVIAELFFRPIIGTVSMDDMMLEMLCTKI

[10] = A549 cell cytotoxicity, dose response, cytotoxicity control, plate reader, cherry-pick, antagonist series (AID 743412); assay type: functional, cell-based
[11] = HepG2 cell cytotoxicity, dose response, cytotoxicity control, plate reader, cherry-pick, antagonist series (AID 743416); assay type: functional, cell-based
[12] = LGR2 antagonists, dose response, cell-based, HEK293, CRE-luciferase reporter, cherry pick, set 2 (AID 743343); assay type: functional;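 note: transfected cells were stimulated with diluted bursicon conditioned medium after compound addition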
[13] = MC4R antagonists, dose response, counter-screen for LGR2 antagonist project, cell-based, plate reader, cherry pick (AID 743444); assay type: functional;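 note: transfected HEK 293 cells stimulated with alpha-MSH peptide; potency of inhibitors of the alpha-MSH evoked signal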
[14] = HEK293 cell cytotoxicity, dose response, cytotoxicity control, plate reader, cherry-picked samples (AID 743446); assay type: functional, cell-based
Leucine aminopeptidase = biological target: T4, Leucine aminopeptidase (Plasmodium falciparum 3D7, UniProt Q8IL11); experiment: P. falciparum M17LAP inhibitors, primary screen, biochemical, fluorogenic H-Leu-NHMec substrate, 1536-well (AID 1619); assay type: functional
T4 sequence (Q8IL11 whole entry): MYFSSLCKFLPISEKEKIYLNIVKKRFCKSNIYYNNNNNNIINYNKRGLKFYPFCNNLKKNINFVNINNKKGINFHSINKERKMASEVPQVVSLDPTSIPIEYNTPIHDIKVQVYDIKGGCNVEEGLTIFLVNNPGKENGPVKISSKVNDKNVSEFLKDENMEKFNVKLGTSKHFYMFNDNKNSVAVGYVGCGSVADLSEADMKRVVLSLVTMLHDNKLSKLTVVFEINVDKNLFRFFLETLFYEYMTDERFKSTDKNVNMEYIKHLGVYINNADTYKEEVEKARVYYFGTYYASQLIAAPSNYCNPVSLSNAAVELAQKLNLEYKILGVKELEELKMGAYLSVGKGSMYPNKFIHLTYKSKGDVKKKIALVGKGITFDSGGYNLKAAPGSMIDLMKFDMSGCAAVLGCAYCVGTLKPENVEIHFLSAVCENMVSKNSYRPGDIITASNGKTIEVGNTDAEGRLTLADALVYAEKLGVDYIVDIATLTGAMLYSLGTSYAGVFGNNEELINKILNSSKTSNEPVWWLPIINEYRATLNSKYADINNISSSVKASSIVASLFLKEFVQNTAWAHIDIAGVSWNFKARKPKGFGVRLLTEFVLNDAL

[15] = biological target: T5, Replicative DNA helicase DnaB (Mycobacterium tuberculosis, UniProt P9WMR3); experiment: DnaB intein splicing inhibitors, dose response, biochemical, cell-free fluorescence (AID 449749); assay type: functional
T5 sequence (P9WMR3 whole entry): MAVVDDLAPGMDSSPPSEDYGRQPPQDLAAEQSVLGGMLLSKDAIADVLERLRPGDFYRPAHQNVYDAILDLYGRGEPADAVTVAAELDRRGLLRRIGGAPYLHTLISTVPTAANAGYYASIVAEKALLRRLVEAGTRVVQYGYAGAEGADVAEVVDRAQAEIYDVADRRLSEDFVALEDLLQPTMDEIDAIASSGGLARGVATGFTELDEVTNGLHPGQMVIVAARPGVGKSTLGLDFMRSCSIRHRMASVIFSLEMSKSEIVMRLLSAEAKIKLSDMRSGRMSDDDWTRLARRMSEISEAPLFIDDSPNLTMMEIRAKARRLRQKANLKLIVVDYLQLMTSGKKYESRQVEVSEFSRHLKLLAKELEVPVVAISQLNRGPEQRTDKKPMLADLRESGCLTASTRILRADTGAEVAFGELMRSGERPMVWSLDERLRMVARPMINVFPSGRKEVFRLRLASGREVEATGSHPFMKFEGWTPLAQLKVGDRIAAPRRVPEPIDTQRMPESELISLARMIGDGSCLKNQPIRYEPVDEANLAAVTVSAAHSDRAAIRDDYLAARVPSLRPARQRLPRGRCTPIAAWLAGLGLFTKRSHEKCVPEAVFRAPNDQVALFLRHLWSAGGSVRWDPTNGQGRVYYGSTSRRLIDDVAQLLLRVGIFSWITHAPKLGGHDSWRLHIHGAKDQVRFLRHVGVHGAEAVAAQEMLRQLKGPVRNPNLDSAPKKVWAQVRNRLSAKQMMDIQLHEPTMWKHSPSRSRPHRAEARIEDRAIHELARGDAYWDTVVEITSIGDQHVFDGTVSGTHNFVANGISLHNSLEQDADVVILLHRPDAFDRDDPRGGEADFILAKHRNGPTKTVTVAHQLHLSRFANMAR

Protein RecA = biological target: T6, Protein RecA (Mycobacterium tuberculosis, UniProt P9WHJ3); experiment: Fluorescence Cell-Free Homogeneous Dose Retest to Identify Inhibitors of RecA-Intein Splicing Activity. [Related pubchem assays (depositor defined):AID2097, AID2223, AID489010, AID492950]; assay type: functional
T6 sequence (P9WHJ3 whole entry): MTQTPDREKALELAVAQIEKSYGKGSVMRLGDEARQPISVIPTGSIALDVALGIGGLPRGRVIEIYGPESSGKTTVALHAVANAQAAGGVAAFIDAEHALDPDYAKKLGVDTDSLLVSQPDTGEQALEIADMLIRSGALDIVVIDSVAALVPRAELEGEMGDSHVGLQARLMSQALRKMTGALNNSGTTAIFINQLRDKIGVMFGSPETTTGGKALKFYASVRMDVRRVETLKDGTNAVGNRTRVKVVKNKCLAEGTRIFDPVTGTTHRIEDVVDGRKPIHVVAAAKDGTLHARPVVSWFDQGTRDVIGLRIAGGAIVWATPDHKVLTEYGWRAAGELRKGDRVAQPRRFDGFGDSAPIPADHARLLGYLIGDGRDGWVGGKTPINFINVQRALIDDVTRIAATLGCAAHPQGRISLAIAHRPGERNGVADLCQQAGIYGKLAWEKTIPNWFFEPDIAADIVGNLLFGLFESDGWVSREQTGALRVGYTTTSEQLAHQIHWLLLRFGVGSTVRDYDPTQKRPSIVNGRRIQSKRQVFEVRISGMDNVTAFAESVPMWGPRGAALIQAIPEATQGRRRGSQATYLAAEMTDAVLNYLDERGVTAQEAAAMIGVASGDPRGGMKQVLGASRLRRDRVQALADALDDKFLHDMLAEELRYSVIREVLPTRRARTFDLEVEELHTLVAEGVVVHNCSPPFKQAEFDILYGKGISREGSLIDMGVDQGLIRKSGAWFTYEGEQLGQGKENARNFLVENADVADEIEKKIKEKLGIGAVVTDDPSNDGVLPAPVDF

Chain of Glyceraldehyde-3-phosphate dehydrogenase (P04406 whole entry): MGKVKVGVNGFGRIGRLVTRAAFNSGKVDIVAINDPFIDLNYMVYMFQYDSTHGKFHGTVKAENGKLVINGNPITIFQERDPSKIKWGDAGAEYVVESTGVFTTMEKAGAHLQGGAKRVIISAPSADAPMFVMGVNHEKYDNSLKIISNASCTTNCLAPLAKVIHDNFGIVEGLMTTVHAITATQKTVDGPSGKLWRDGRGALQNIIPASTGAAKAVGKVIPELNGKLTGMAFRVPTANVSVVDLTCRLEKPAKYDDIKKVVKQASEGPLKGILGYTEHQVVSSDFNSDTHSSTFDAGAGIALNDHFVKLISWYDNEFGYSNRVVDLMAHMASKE

## Cc1oc(-c2cc(Cl)cc(Cl)c2)cc1C(=O)Nc1ccc(S(N)(=O)=O)cc1
[1]
  IC50: > 100 µM (not active)

## Cc1nc2sc(-c3ccccc3)cc2c(=O)n1N
[2]
  EC50: 2.82 µM (active)
[3]
  EC50: > 300 µM (not active)
[4]
  EC50: 6.26 µM (active)
[5]
  EC50: > 300 µM (not active)
[6]
  EC50: 3.44 µM (active)
[7]
  EC50: 1.01 µM (active)
[8]
  EC50: 1.73 µM (active)
HEK293
  AC50: 1.04 µM (active)
cells
  IC50: > 67.6 µM (inactive)
[9]
  IC50: > 67.6 µM (inactive)
[10]
  AC50: 24.2 µM (active)
[11]
  AC50: 50 µM (active)
[12]
  AC50: 2.31 µM (active)
[13]
  AC50: 2.66 µM (active)
[14]
  AC50: 24.9 µM (active)

## CCN1CCN(C2=C(Cl)C(=O)N(c3cccc(C)c3)C2=O)CC1
[1]
  IC50: > 50 µM (inconclusive)

## CC(=O)N1CCC2(CC1)C(C#N)=C(N)Oc1[nH]nc(CSc3ccc(C)cc3)c12
Leucine aminopeptidase
  IC50: 21.1 µM (active)
[15]
  AC50: 4.72 µM (active)
Protein RecA
  EC50: 2.9 µM (active)

## O=C(CSc1nnc[nH]1)Nc1ccc2c(c1)CCC2
Leucine aminopeptidase
  IC50: 22.3 µM (active)

Source: ChEMBL document CHEMBL1201862, “PubChem BioAssay data set” (2004)
